Columns and labels:
Format in all cases: in vivo
Pemphigus bursarius = assay: Example 2: chrysanthemums, lettuce root aphid, foliar spray; settings: on roots, spray on above-ground parts, rate : I-9 144, I-2 96
Procedure: In three replications, in each case 10 109-day-old chrysanthemums of the cultivar “Camilla” in 2 l-vessels are treated against the lettuce root aphid Pemphigus bursarius. Here, the active compounds Example (I-9) (240 SC) and Example (I-2) (240 SC) are applied with a knapsack sprayer operated by pressurized air at the stated application rates only to the above-ground parts of the plants. The soil is covered with a film. The application rate is 300 l of water/ha. 0.1% a.i. of rapeseed oil methyl ester (500 EW) is added to the spray liquor.
The kill in percent is determined on the roots. 21 and 29 days after the application, the following results are obtained: […]

Aonidiella aurantii [1] = assay: Example 15: orange trees treated against Aonidiella aurantii; settings: on fruits, % a.i.: Tokuthion 0.048 (once), I-9 0.0096, I-2 0.0096 (two applications)
Procedure: In three replications, 3-year-old orange trees of the cultivar “Midnight Valenzia” are treated against Aonidiella aurantii. Two applications are carried out at an interval of 72 days, using a motor-operated knapsack sprayer. Here, the active compounds Example (I-9) (240 SC) and Example (I-2) (240 SC) in a tank mix with 0.1% a.i. of rapeseed oil methyl ester (500 EW) at the stated application rate are tested against the standard Tokuthion (960 EC) at the stated amounts. applied once. The application rate is 4 l of water per tree.
Evaluation is carried out 130 and 176 days after the treatment by rating the kill on the fruits.

Aonidiella aurantii [2] = assay: Example 16: grapefruit tree treated against Aonidiella aurantii; settings: on fruits, per metre crown height: Dursban 6.01 pounds/acre, I-4 72 g/ha
Procedure: In four replications, an about 10-year-old grapefruit tree of the cultivar “Rio Red” is treated against Aonidiella aurantii. The application is carried out using a motor-operated barrow-mounted sprayer. Here, the active compound Example (I-4) (240 SC) and the commercial standard Dursban (480 EC) are tested at the stated application rates. The amount of spray liquor is 5.8 gallons per tree.
Evaluation is carried out 28, 59 and 90 days after the treatment by rating the kill of the animals on the fruits.

Aspidiotus neri = assay: Example 20: lime trees treated against Aspidiotus neri; settings: 167 d after treatment, on fruits, % a.i.: Dursban 0.096, Juvinal 0.005, I-4 0.0072
Procedure: In four replications, about 5-year-old lime trees of the cultivar “Fino” are treated against Aspidiotus neri. The application is carried out using a knapsack sprayer. Here, the active compound Example (I-4) (240 SC) in a tank mix with 0.1% a.i. of rapeseed oil methyl ester (500 EW) at the stated application rate is tested against the standards Dursban (480 EC) and Juvinal (100 EC) at the stated amounts, applied once. The application rate is 3000 l of water/ha per tree.
Evaluation is carried out 167 days after the treatment by rating the kill on the fruits.

[3] = tested on: Pseudaulacaspis pentagons; assay: Example 22: peach trees treated against Pseudaulacaspis pentagons; settings: crawlers on shoots, g a.i./ha/m crown height: Esteem 98, I-4 120
Procedure: In ten replications, on about 46 m^2, peach trees are treated against Pseudaulacaspis pentagons. Two applications are carried out at an interval of 57 days using a sprayer operated with pressurized air. Here, the active compound Example (I-4) (240 SC) in a tank mix with 0.2% of Dynamic (910 XL) is applied at the stated application rate and the commercial standard Esteem (35 WP) is applied at the stated application rate. The application rate is 935 l of water/ha.
Evaluation is carried out 35 and 79 days after the last treatment by rating the kill of the crawlers on the shoots.

[4] = tested on: Pseudaulacaspis prunicola; assay: Example 23: Japanese apricot trees treated against Pseudaulacaspis prunicola; settings: 58 days after treatment, nymphs on shoots, % a.i.: Supracide EC 0.04, I-4 0.0075
Procedure: In six replications, about 16-year-old Japanese apricot trees of the cultivar “Shirokag” are treated against Pseudaulacaspis prunicola. The application is carried out using a sprayer. Here, the active compound Example (I-4) (200 SC) is tested against the commercial standard Supracide EC (400 EC), at the stated application rates. The application rate is 1500 l of water/ha.
Evaluation is carried out 58 days after the treatment by rating the kill of the nymphs on the shoots.

Bemisia argentifolii = assay: Example 37: cantaloupe melons treated against Bemisia argentifolii; settings: nymphs on leaves, g a.i./ha: endosulfan 1120, I-4 48
Procedure: In four replications, plots of a size of about 39 m^2 with cantaloupe melons of the cultivar “Western Shipper” are treated against Bemisia argentifolii. The application is carried out using a knapsack sprayer operated with pressurized air. Here, the active compound Example (I-4) (240 SC), in a tank mix with 0.2 a.i. of rapeseed oil methyl ester (500 EW), and the commercial standard endosulfan (360 EC) are tested at the stated application rates. Two applications are carried out at an interval of 16 days. The application rate is 187 l of water/ha.
Evaluation is carried out 5, 13, 21 and 29 days after the first treatment by rating the kill of the animals (nymphs) on the leaves.

Macrosiphum euphorbiae = assay: Example 55: strawberry plants treated against Macrosiphum euphorbiae; settings: nymphs on strawberry plants, g a.i./ha: Calypso 120, I-4 75
Procedure: In four replications, plots of a size of about 3 m^2 with 3-week-old strawberry plants are treated against Macrosiphum euphorbiae and Rhodobium porosum. The application is carried out using a knapsack sprayer operated with pressurized air. Here, the active compound Example (I-4) (150 OD) and the commercial standard Calypso (480 SC) are tested at the stated application rates. Here, the standard is sprayed as a tank mix with 0.03% of Motto (adjuvant). The application rate is 500 l of water/ha.
Evaluation is carried out 7 and 14 days after the second treatment by rating the kill of the nymphs on the plants.

SMILES | Kill (%) 21 d (Pemphigus bursarius; 21 d after application) | Kill (%) 29 d (Pemphigus bursarius; 29 d after application) | Kill (%) 130 d (Aonidiella aurantii [1]; 130 d after treatment) | Kill (%) 176 d (Aonidiella aurantii [1]; 176 d after treatment) | Kill (%) 28 d (Aonidiella aurantii [2]; 28 d after treatment) | Kill (%) 59 d (Aonidiella aurantii [2]; 59 d after treatment) | Kill (%) 90 d (Aonidiella aurantii [2]; 90 d after treatment) | Kill (%) 167 d (Aspidiotus neri) | Kill (%) 35 d ([3]; 35 d after last of two treatments) | Kill (%) 79 d ([3]; 79 d after last of two treatments) | Kill (%) 58 days [4] | Kill (%) 5 d (Bemisia argentifolii; 5 d after first of two treatments) | Kill (%) 13 d (Bemisia argentifolii; 13 d after first of two treatments) | Kill (%) 21 d (Bemisia argentifolii; 21 d after first of two treatments) | Kill (%) 29 d (Bemisia argentifolii; 29 d after first of two treatments) | Macrosiphum euphorbiae Kill (%) 7 d (Macrosiphum euphorbiae; 7 d after second treatment) | Macrosiphum euphorbiae Kill (%) 14 d (Macrosiphum euphorbiae; 14 d after second treatment)
CCOC(=O)OC1=C(c2cc(C)ccc2Br)C(=O)NC12CCC(OC)CC2 (centres unmarked) [Example (I-2)] | 80.8% | 91.8% | 52% | 76% |  |  |  |  |  |  |  |  |  |  |  |  | 
CCOC(=O)OC1=C(c2cc(C)ccc2C)C(=O)NC12CCC(OC)CC2 (centres unmarked) [Example (I-4)] |  |  |  |  | 92.7% | 100% | 100% | 96.2% | 90% | 87% | 92.3% | 100% | 100% | 98.1% | 90.5% | 62.2% | 94%

From patent publication US20090012152A1, “Use of Tetramic Acid Derivatives for Controlling Insects from the Genus of the Plane Lice (Sternorrhyncha)” (Bayer CropScience Aktiengesellschaft, priority 2005, published 2009)
